# Reference: patent publication US6670364B2, “Antagonists of MCP-1 function and methods of use thereof” (Telik, Inc., priority 2001, dated 2003)
# Counter-ions that a name gives are not always drawn.
# Experiments:
# [1] = molecular target: hMCP-1 (Homo sapiens, UniProt P13500); assay: Inhibition of MCP-1-induced chemotaxis (48-well chamber, Example 21); type: cell-based; design: purchased PeproTech; details: THP-1 cells, 2.5 nM hMCP-1, 48-well chamber, 2 hr
# Experimental: A 48-well microchemotaxis chamber with a 5 μm-pore size, PVP-coated polycarbonate filter membrane (Neuro Probe Inc., Cabin John, Md.) was used for testing. Compounds were prepared as 10 mM stock solution in DMSO. THP-1 cells were washed with RPMI 1640 medium supplemented with 0.5% BSA and 25 mM HEPES, pH 7.4, and suspended at a density of 4×10^6 cells/mL in the same medium. A 150 μL aliquot of this suspension was treated with an equal volume of test compound solution and the mixture incubated at 37° C. for 15 min. The lower chamber was loaded with 26 μL of a 2.5 nM solution of hMCP-1 (PeproTech) in medium. The filter membrane was placed over the lower chamber, followed by a silicon rubber gasket and the upper chamber. A 50 μL aliquot of the THP-1 cell suspension containing the test compound was added to the upper chamber and the assembly incubated in a 5% CO2 atmosphere at 37+ C. for 2 hr. The chamber was then disassembled and the cells remaining on the upper surface of the filter were scrapped off with a rubber scrapper. The filter was fixed with methanol, stained with Diff-Quik solution, and mounted on a slide glass. The cells that had migrated across the filter onto the lower surface were then counted by microscopic observation.
# [2] = test system: ICR male mice; assay: Thioglycollate-induced inflammation model (Example 18); type: in vivo; details: repeated immediately after broth injection and 3 h later, peritoneal cavity at 72 h, mouse
# Experimental: 3% Brewer's thioglycollate broth (Difco, Detroit, Mich.) was injected into the peritoneal cavity of ICR male mice, followed by subcutaneous administration of the test compound. The same dose of test compound was again administered immediately after the broth injection and 3 h later. After 72 h, the number of total elicited cells and MOMA2-positive cells in the peritoneal cavity was analyzed using an EPICS XL Beckman Coulter.
# [3] = test system: female Lewis rats; assay: Collagen-induced arthritis model in rat, p.o. (Example 24); type: in vivo
# Experimental: Collagen-induced arthritis was induced in female Lewis rats as follows. Rats were injected subcutaneously with the emulsion of bovine collagen type 11 (3.3 mg/kg at day 0 and 1.67 mg/kg at day 7) and complete Freund's adjuvant (CFA) at the base of the tail at day 0 and immunized additionally at day 7. The test compounds were administered p.o. at day 0 and then twice a day for 21 days or 3 times a week until day 21 was also administered p.o. from day 13 to day 21 in another group. Paw swelling was measured by the increased volume of the legs using a plethysmometer.
# [4] = 2 mg/kg p.o. twice a day from day 0
# [5] = 10 mg/kg p.o. from day 13 to day 21
# [6] = 10 mg/kg p.o. twice a day from day 0
# hMCP-1, sequence (P13500 24-99): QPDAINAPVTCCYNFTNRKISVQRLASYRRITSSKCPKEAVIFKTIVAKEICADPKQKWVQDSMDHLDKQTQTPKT
Molecule,IC50 [1],also measured
"Cc1nn(C)c2ncc(C(=O)NC(=O)Nc3ccc(F)c(C(F)(F)F)c3)c(NCCN(C)C)c12 [Compound 46, (4-{[2-(Dimethylamino)ethyl]amino}-1,3-dimethylpyrazolo[5,4-b]pyridin-5-yl)-N-({[4-fluoro-3-(trifluoromethyl)phenyl]amino}carbonyl)carboxamide hydrochloride]",2 µM,–
Cc1nn(C)c2ncc(C(=O)NC(=O)Nc3ccc(Cl)c(Cl)c3)c(N3CCN(C)CC3)c12 [Compound 71],4 µM,–
Cc1ccc(NC(=O)NC(=O)c2cnc3c(c(C)nn3C)c2N2CCN(C)CC2)cc1C(F)(F)F [Compound 83],4 µM,–
Cc1nn(C)c2ncc(C(=O)NC(=O)Nc3cccc(C(C)C)c3)c(N3CCN(C)CC3)c12 [Compound 74],4 µM,–
Cc1nn(C)c2ncc(C(=O)NC(=O)Nc3cccc(Br)c3)c(N3CCN(C)CC3)c12 [Compound 69],4 µM,–
Cc1nn(C)c2nc(N(C)CCN(C)C)c(C(=O)NC(=O)Nc3cccc(OC(C)C)c3)cc12 [Compound 140],–,"MOMA2-positive Cells (× 10^6) ([2]; 10 mg/kg s.c.): 5.2 ± 0.6 × 10^6; Total Cells (× 10^6) ([2]; 10 mg/kg s.c.): 7.3 ± 1.1 × 10^6; Percent Swelling day 14 [3, 4]: 14.2 ± 3.3 %; Percent Swelling day 21 [3, 4]: 49.2 ± 14.1 %; Percent Swelling day 14 [3, 5]: 10.1 ± 1.6 %; Percent Swelling day 21 [3, 5]: 73.5 ± 6.3%; Percent Swelling day 14 [3, 6]: 7.5 ± 1.0 %; Percent Swelling day 21 [3, 6]: 28.0 ± 6.4 %"
"[4-(4-Ethylpiperazinyl)-1,3-dimethylpyrazolo[5,4-b]pyridin-5-yl]-N-({[4-fluoro-3-(trifluoromethyl)phenyl]amino}carbonyl)carboxamide hydrochloride [Compound 100]",0.38 µM,–
"Cc1nn(C)c2ncc(C(=O)NC(=O)Nc3ccc(F)c(C(F)(F)F)c3)c(N3CCN(c4ccccc4)CC3)c12 [Compound 103, [1,3-Dimethyl-4-(4-phenylpiperazinyl)pyrazolo[5,4-b]pyridin-5-yl]-N-({[4-fluoro-3-(trifluoromethyl)phenyl]amino}carbonyl)carboxamide]",2 µM,–
"Cc1nn(C)c2ncc(C(=O)NC(=O)Nc3ccc(F)c(C(F)(F)F)c3)c(-[n+]3ccc(N)cc3)c12 [Compound 106, 4-Amino-1-{5-[N-({[4-fluoro-3-(trifluoromethyl)phenyl]amino}carbonyl)carbamoyl]-1,3-dimethylpyrazolo[5,4-b]pyridin-4-yl}pyridinium chloride]",0.4 µM,–
"Cc1nn(C)c2ncc(C(=O)NC(=O)Nc3ccc(F)c(C(F)(F)F)c3)c(N(C)C)c12 [Compound 44, [4-(Dimethylamino)-1,3-dimethylpyrazolo[5,4-b]pyridin-5-yl]-N-({[4-fluoro-3-(trifluoromethyl)phenyl]amino}carbonyl)carboxamide]",8.2 µM,–
"Cc1nn(C)c2ncc(C(=O)NC(=O)Nc3ccc(F)c(C(F)(F)F)c3)c(O)c12 [Compound 43, N-({[4-fluoro-3-(trifluoromethyl)phenyl]amino}carbonyl)(4-hydroxy-1,3-dimethylpyrazolo[5,4-b]pyridin-5-yl)carboxamide]",7.7 µM,–
Cc1nn(C)c2ncc(C(=O)NC(=O)Nc3ccc(Cl)c(C(=O)N4CCOCC4)c3)c(N3CCN(C)CC3)c12 [Compound 95],1.9 µM,–
Cc1nn(C)c2ncc(C(=O)NC(=O)Nc3cccc(-c4nccs4)c3)c(N3CCN(C)CC3)c12 [Compound 78],0.9 µM,–
"Cc1nn(C)c2ncc(C(=O)NC(=O)Nc3ccc(F)c(C(F)(F)F)c3)c(N(CCO)CCO)c12 [Compound 51, {4-[Bis(2-hydroxyethyl)amino]-1,3-dimethylpyrazolo[5,4-b]pyridin-5-yl}-N-({[4-fluoro-3-(trifluoromethyl)phenyl]amino}carbonyl)carboxamide]",1.6 µM,–
"Cc1nn(C)c2ncc(C(=O)NC(=O)Nc3ccc(F)c(C(F)(F)F)c3)c(N3CCCCC3)c12 [Compound 64, (1,3-Dimethyl-4-piperidylpyrazolo[5,4-b]pyridin-5-yl)-N-({[4-fluoro-3-(trifluoromethyl)-phenyl]amino}carbonyl)carboxamide]",2 µM,–
"Cc1nn(C)c2ncc(C(=O)NC(=O)Nc3ccc(F)c(C(F)(F)F)c3)c(N3CCOCC3)c12 [Compound 65, (1,3-Dimethyl-4-morpholin-4-ylpyrazolo[5,4-b]pyridin-5-yl)-N-({[4-fluoro 3-(trifluoromethyl)phenyl]amino}carbonyl)carboxamide]",10 µM,–
Cc1nn(C)c2ncc(C(=O)NC(=O)Nc3cccc(C(F)(F)F)c3)c(N3CCN(C)CC3)c12 [Compound 73],1.7 µM,–
Cc1nn(C)c2ncc(C(=O)NC(=O)Nc3ccc(F)c(C(F)(F)F)c3)c(NCc3ccccc3)c12 [Compound 61],20 µM,–

Molecule,IC50 [1],also measured
Cc1nn(C)c2ncc(C(=O)NC(=O)Nc3ccc(C(=O)N4CCOCC4)c(Cl)c3)c(N3CCN(C)CC3)c12 [Compound 94],1.2 µM,–
Cc1nn(C)c2ncc(C(=O)NC(=O)Nc3cc(O)cc(C(F)(F)F)c3)c(N3CCN(C)CC3)c12 [Compound 89],4 µM,–
Cc1nn(C)c2ncc(C(=O)NC(=O)Nc3cc(C(F)(F)F)cc(C(F)(F)F)c3)c(N3CCN(C)CC3)c12 [Compound 91],3 µM,–
Cc1nn(C)c2ncc(C(=O)NC(=O)Nc3cccc(Cl)c3)c(N3CCN(C)CC3)c12 [Compound 68],4 µM,–
Cc1nn(C)c2ncc(C(=O)NC(=O)Nc3ccc(O)c(C(F)(F)F)c3)c(N3CCN(C)CC3)c12 [Compound 87],4 µM,–
Cc1nn(C)c2ncc(C(=O)NC(=O)Nc3ccc(F)c(C(F)(F)F)c3)c(N3CCNCC3)c12 [Compound 67],1.8 µM,–
Cc1nn(C)c2ncc(C(=O)NC(=O)Nc3cccc(-c4ccccc4)c3)c(N3CCN(C)CC3)c12 [Compound 80],4 µM,–
Cc1nn(C)c2ncc(C(=O)NC(=O)Nc3cccc(OC(F)(F)F)c3)c(N3CCN(C)CC3)c12 [Compound 77],0.7 µM,–
Cc1nn(C)c2ncc(C(=O)NC(=O)Nc3ccc(Cl)c(C(=O)OC(C)C)c3)c(N3CCN(C)CC3)c12 [Compound 92],2.1 µM,–
"Cc1nn(C)c2ncc(C(=O)NC(=O)Nc3ccc(F)c(C(F)(F)F)c3)c(NCCC34CCCN3CCC4)c12 [Compound 60, {1,3-Dimethyl-4-[(2-perhydropyrrolizin-7a-ylethyl)amino]pyrazolo[5,4-b]pyridin-5-yl}-N-({[4-fluoro-3-(trifluoromethyl)phenyl]amino}carbonyl)carboxamide hydrochloride]",1.2 µM,–
"Cc1nn(C)c2nc(N(C)CCN(C)C)c(C(=O)NC(=O)Nc3ccc(F)c(C(F)(F)F)c3)cc12 [Compound 116, (6-{[2-(Dimethylamino)ethyl]methylamino}-1,3-dimethylpyrazolo[5,4-b]-pyridin-5-yl)-N-({[4-fluoro-3-(trifluoromethyl)phenyl]amino}carbonyl)-carboxamide hydrochloride]",–,MOMA2-positive Cells (× 10^6) ([2]; 10 mg/kg s.c.): 3.0 ± 0.8 × 10^6; Total Cells (× 10^6) ([2]; 10 mg/kg s.c.): 4.2 ± 1.1 × 10^6
Cc1nn(C)c2ncc(C(=O)NC(=O)Nc3ccc(C(=O)N4CCN(C)CC4)c(Cl)c3)c(N3CCN(C)CC3)c12 [Compound 97],1.1 µM,MOMA2-positive Cells (× 10^6) ([2]; 2 mg/kg s.c.): 4.1 ± 0.3 × 10^6; Total Cells (× 10^6) ([2]; 2 mg/kg s.c.): 6.4 ± 0.6 × 10^6
Cc1nn(C)c2ncc(C(=O)NC(=O)Nc3ccc(Cl)cc3)c(N3CCN(C)CC3)c12 [Compound 70],4 µM,–
Cc1nn(C)c2ncc(C(=O)NC(=O)Nc3cccc(OC(C)C)c3)c(N3CCN(C)CC3)c12 [Compound 75],0.7 µM,–
Cc1nn(C)c2ncc(C(=O)NC(=O)Nc3ccc(C(=O)O)c(OC(C)C)c3)c(N3CCN(C)CC3)c12 [Compound 76],4 µM,–
"Cc1nn(C)c2ncc(C(=O)NC(=O)Nc3ccc(F)c(C(F)(F)F)c3)c(N3CCCN(C)CC3)c12 [Compound 108, [1,3-Dimethyl-4-(4-methyl(1,4-diazaperhydroepinyl))pyrazolo[5,4-b]pyridin-5-yl]-N-({[4-fluoro-3-(trifluoromethyl)phenyl]amino}carbonyl)carboxamide hydrochloride]",2 µM,–
Cc1nn(C)c2ncc(C(=O)NC(=O)Nc3cccc(C(F)(F)F)c3)c(N3CCN(C)CC3)c12 [Compound 72],3.6 µM,–
